Source: US20080027079A1, “DIHYDROOROTATE DEHYDROGENASE INHIBITORS WITH SELECTIVE ANTI-MALARIAL ACTIVITY” (Board of Regents, University of Texas System, priority 2006, published 2008)
Where two headings read alike, the source gives them in different places.

Columns and labels:
[1] = biological target: T1, P. falciparum dihydroorotate dehydrogenase (pfDHODH) (Plasmodium falciparum, UniProt Q08210); experiment: biochemical
T1 sequence (Q08210 24-569): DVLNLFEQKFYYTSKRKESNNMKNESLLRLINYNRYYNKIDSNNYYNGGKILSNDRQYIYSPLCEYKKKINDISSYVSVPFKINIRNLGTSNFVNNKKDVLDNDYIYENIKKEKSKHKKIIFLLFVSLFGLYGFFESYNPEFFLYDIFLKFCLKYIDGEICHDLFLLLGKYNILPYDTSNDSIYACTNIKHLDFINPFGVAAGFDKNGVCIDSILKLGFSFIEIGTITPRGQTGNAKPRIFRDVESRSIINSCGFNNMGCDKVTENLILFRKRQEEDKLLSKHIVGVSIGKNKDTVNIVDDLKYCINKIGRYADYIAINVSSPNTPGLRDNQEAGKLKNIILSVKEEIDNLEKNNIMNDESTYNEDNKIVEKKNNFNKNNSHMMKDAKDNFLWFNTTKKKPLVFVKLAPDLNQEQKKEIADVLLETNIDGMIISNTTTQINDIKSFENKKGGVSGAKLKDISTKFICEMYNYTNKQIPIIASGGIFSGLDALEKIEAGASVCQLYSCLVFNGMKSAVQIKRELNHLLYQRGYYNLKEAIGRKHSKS
Procedure: (§1) Measurement of enzyme inhibition. For studying inhibition of Plasmodium or human DHODH enzyme, two assays that are in routine use are described, for example, in Baldwin, et al. (2002) J Biol Chem., 277, 41827-41834, and Baldwin, et al. (2005) J. Biol. Chem., 280. 21847-21853. Briefly, these assays are as follows: 1) A […] assay thay that monitors 2,6-dichloroindophenol (DCIP) reduction at 600 nm (e=18.8 mM^−1 cm^−1) is performed as either a continuous assay where absorbance is recorded over time. The assay solution containing 100 mM HEPES, pH 8.0, 150 mM NaCl, 10% glycerol, 0.05% Triton X-[…] CoQ0 (coenzyme QD), […] L-dihydroorotate, and […] DCIP. Reactions are initiated by addition of enzyme to a final concentration of 5-50 nM and the temperature is maintained at 25° C with a circulating water bath. 2) A direct assay that follows the production of orotic acid by measuring the absorbance change at 287 nm (ε=4.3 mM^−1 cm^−1); DCIP is not included, but all other components of the assay are as described in method one. Inhibitor stocks are prepared in DMSO, and the inhibitors, such as GR-34, are added to these assays over a concentration range that encompasses their IC50 value and, the IC50's are determined from a plot of reaction rate in the presence of inhibitor/reaction rate in the absence of inhibitor (vi/vo) versus inhibitor concentration (Eq. 1). [formula]

[2] = system: P. falciparum 3D7; experiment: 3H-hypoxanthine uptake in P. falciparum-infected erythrocytes in culture (whole cell assay); format: cell-based; settings: Plasmodium falciparum, Erythrocyte; 3D7 strain, in vitro
Procedure: In vitro evaluation of compound efficacy on the human malaria parasite, P. falciparum. To study inhibition of cell proliferation, ^3H-hypoxanthine uptake is measured in drug-treated, P. falciparum-infected erythrocytes grown in culture, pursuant to the methodology of Desjardins, et al. (1979) Antimicrobial Agents and Chemotherapy 16, 710-718, and Zhang and Rathod (2002) Science 296, 545-547.

[3] = biological target: human dihydroorotate dehydrogenase (hDHODH) (Homo sapiens, UniProt Q02127); experiment: hDHODH enzyme inhibition (DCIP colorimetric or direct orotate assay); format: biochemical
human dihydroorotate dehydrogenase (hDHODH), sequence (Q02127 whole entry): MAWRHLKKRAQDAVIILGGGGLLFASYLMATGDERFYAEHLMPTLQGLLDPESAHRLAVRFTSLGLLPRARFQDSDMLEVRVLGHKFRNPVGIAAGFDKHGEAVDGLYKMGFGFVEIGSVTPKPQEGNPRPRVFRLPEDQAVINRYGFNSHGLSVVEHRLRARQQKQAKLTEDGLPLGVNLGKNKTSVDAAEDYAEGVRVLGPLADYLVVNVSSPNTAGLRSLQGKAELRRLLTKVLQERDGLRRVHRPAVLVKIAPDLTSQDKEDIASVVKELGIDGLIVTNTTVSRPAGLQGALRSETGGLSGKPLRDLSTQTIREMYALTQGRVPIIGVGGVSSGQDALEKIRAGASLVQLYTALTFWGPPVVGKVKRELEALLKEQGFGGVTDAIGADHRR
Procedure: as §1

Row | Compound | IC50 ([1]; read-out: IC50 pf DHODH) [nM] | EC50 [2] [nM] | IC50 [3] [nM] | IC50 [1] [nM]
1 | Cc1cc(Nc2cc3ccccc3cc2O)n2ncnc2n1 [5-methyl-N-(3-hydroxynaphthalen-2-yl)-[1,2,4]triazolo[1,5-a]pyrimidin-7-amine] | 2400 | 600 |  | 
2 | Cc1cc(Nc2ccc3cc4ccccc4cc3c2)n2ncnc2n1 [5-methyl-N-(anthracen-2-yl)-[1,2,4]triazolo[1,5-a]pyrimidin-7-amine] | 23 | 120 | > 200000 | 
3 | Cc1cc(Nc2cnc3ccccc3c2)n2ncnc2n1 [5-methyl-N-(quinolin-3-yl)-[1,2,4]triazolo[1,5-a]pyrimidin-7-amine] | 2000 |  | > 200000 | 
4 | Cc1nc2ncnn2c(Nc2ccc3cc4ccccc4cc3c2)c1C [N-(anthracen-2-yl)-5,6-dimethyl-[1,2,4]triazolo[1,5-a]pyrimidin-7-amine] | 250 |  |  | 
5 | CCc1cc(Nc2ccc3ccccc3c2)n2ncnc2n1 [5-ethyl-N-(naphthalen-2-yl)-[1,2,4]triazolo[1,5-a]pyrimidin-7-amine] | 280 |  |  | 
6 | CCc1cc(Nc2ccc3cc4ccccc4cc3c2)n2ncnc2n1 [N-(anthracen-2-yl)-5-ethyl-[1,2,4]triazolo[1,5-a]pyrimidin-7-amine] | 240 |  |  | 
7 | Cc1cc(Nc2ccc3ccccc3c2)n2ncnc2n1 [5-methyl-N-(naphthalen-2-yl)-[1,2,4]triazolo[1,5-a]pyrimidin-7-amine] |  | 50 | > 600000 | 
8 | FC(F)(F)c1cc(Nc2ccc3ccccc3c2)n2ncnc2n1 [5-trifluoromethyl-N-(naphthalen-2-yl)-[1,2,4]triazolo[1,5-a]pyrimidin-7-amine] | 126 |  | > 200000 | 
9 | Cc1nc2ncnn2c(Nc2ccc3ccccc3c2)c1C [5,6-dimethyl-N-(naphthalen-2-yl)-[1,2,4]triazolo[1,5-a]pyrimidin-7-amine] | 130 |  |  | 
10 | Cc1cc(Nc2ccc3ncccc3c2)n2ncnc2n1 [5-methyl-N-(quinolin-6-yl)-[1,2,4]triazolo[1,5-a]pyrimidin-7-amine] |  |  | > 200000 | 1300
11 | Cc1cc(Nc2ccc3c(=O)ccoc3c2)n2ncnc2n1 [5-methyl-N-(4H-chromen-4-on-7-yl)-[1,2,4]triazolo[1,5-a]pyrimidin-7-amine] | 1900 |  | > 200000 | 
